# Assay results as given in patent US20120021468A1, “PRODUCTION OF L-RIBOSE AND OTHER RARE SUGARS” (ZUCHEM, INC., priority 2008, published 2012).
# Legend:
# [1] = tested on: HIV; settings: cited from earlier work
# [2] = biological target: T1, Recombinant MDH (Apium graveolens, UniProt Q38707); assay: Relative reaction rates of substrates with recombinantly expressed MDH (NADH measured spectrophotometrically); type: biochemical; settings: MDH expressed recombinantly; D-mannitol = 100%
# T1 construct: An MDH gene was synthetically constructed for expression E. coli; made in house; host or cells: E. coli BL21, pTTQ18 plasmid
# Method: (§1) Many different variables were studied to maximize the expression and activity of MDH. MDH activity was monitored with the conversion of D-mannitol to D-mannose in the presence of NAD. The conversion was monitored spectrophotometrically by measuring the increasing concentration of NADH, the cofactor product of the oxidation of mannitol to mannose. For a given experiment, lysate protein concentrations were normalized.
# (§2) Substrate specificity of the recombinant MDH was also tested and compared with the published data on the natively expressed MDH. Recombinant expression of MDH in E. coli could cause subtle modifications to the tertiary structure of MDH and modify the substrate specificity. Several known substrates of the MDH were tested.[16]
# [3] = tested on: E. coli production strain with inactive PEP-dependent phosphotransferase system; assay: Polyol conversion in shake flasks by mutagenized PTS-inactive E. coli MDH strain, HPLC; type: cell-based
# Text: This can be accomplished by PCR-based genetic deletion of phosphocarrier protein ptsH, phosphotransferase system enzyme I ptsI, and the glucose specific enzyme IIA PTS component crr, but could be accomplished by other genetic manipulation including deletion of the polyol specific PTS type II genes or other genetic or biochemical manipulation known to those skilled in the art. These mutations render the production strain unable to metabolize or phosphorylatively uptake D-mannitol, galactitol, or D-sorbitol.
# Flasks contained LB, ampicillin, 250 μM ZnCl2, and 40 g/L galactitol, D-mannitol, or D-sorbitol. Cells were induced with 0.5 mM IPTG after 4 hrs growth at 37° C. and the temperature was reduced to 25° C. After 6 days of incubation, D-mannose had been created from D-mannitol with 12% conversion. D-sorbitol conversion to L-gulose ceased after 7 days with a final conversion of 12%. Following 14 days of reaction, L-galactose had been produced from galactitol with 40% conversion. The final products were characterized by non-chiral HPLC in comparison to their D-counterparts. Optical rotation was obtained by polarimetry and used to verify stereochemistry. This resulting strain is further capable of converting D-arabitol to D-lyxose at 24% conversion.
# [4] = biological target: T2, Native MDH (Apium graveolens, UniProt Q38707); settings: MDH expressed natively; D-mannitol = 100%; published data; cited from earlier work
# T2 construct: compared with the published data on the natively expressed MDH; host or cells: celery (Apium graveolens), native expression
# [5] = tested on: recombinant E. coli MDH strain; assay: Polyol bioconversion by the recombinant E. coli MDH strain, HPLC; type: cell-based; settings: strain with active phosphotransferase uptake system
# Text: It was hypothesized that the lack of conversion was due to the phosphotransferase uptake system for D-mannitol, galactitol, and D-sorbitol, which phosphorylates these polyols upon uptake.
# [6] = biological target: T3, Recombinant MDH (Apium graveolens, UniProt Q38707, C47S/T120I); assay: Relative reaction rates of substrates with recombinantly expressed MDH (NADH measured spectrophotometrically); type: biochemical; settings: recombinant MDH
# T3 construct: An MDH gene was synthetically constructed for expression E. coli; made in house; host or cells: E. coli BL21, pTTQ18 plasmid
# Method: as §1, §2
# [7] = biological target: T4, Apium gravelons mannitol-1-dehydrogenase (MDH) (Apium graveolens, UniProt Q38707, C47S/T120I); assay: MDH activity in lysate with added divalent metal salts; type: biochemical
# T4 construct: An MDH gene was synthetically constructed for expression E. coli; made in house; host or cells: E. coli BL21, pTTQ18 plasmid
# Method: While not explicitly described in the literature, Apium gravelons mannitol-1-dehydrogenase (MDH) requires divalent metal ions, particularly Zn^2+ ions, for activity. The presence of ZnSO4 increases MDH activity. Cells expressing MDH were grown in rich media were harvested and lysed with BUGBUSTER® protein extraction reagent, Novagen, Madison, Wis. MDH activity was then tested with increasing concentrations of ZnSO4 in the presence of D-mannitol and NAD cofactor at pH 9.0. See, FIG. 11.
# [8] = tested on: recombinant E. coli expressing MDH; assay: Effect of Zn2+ on L-ribose production from ribitol; type: cell-based; settings: LB, 100 g/L ribitol, 0.5% glycerol
# Method: The cultures are analyzed for production of L-ribose vs. time. The optimum production of L-ribose occurs between 0.15 and 1.5 mM Zn^2+ with the best conversion at 0.5 mM ZnCl2 (FIG. 14).
# [9] = pH profile of MDH oxidation activity; type: biochemical; settings: relative to maximum at pH 9.0
# Method: as §1
# The pH profile for MDH for the oxidation reactions was also tested. […] This range could be beneficial for in vitro bioconversions with enzymatic NAD cofactor recycling methods. Increasing the activity of MDH at neutral pH could improve in vivo fermentation activity as the interior of the E. coli cell has a pH lower than 9.0.[21]
# [10] = Thermostability of recombinant MDH in lysates; type: physicochemical; settings: after four hours of incubation at various temperatures, except at 25° C.
# Method: The thermostability of recombinant MDH was also tested. Lysates containing MDH were incubated at various temperatures. Aliquots of MDH were removed at various times to measure MDH activity using the assay described above. See, FIG. 13.
# [11] = MDH thermal stability: incubation at 43° C. followed by kinetic assay; type: physicochemical; settings: relative to WT
# [12] = Fermentation of ribitol to L-ribose with wild-type MDH in E. coli; type: cell-based
# Method: Because of the successes with the expression of MDH in E. coli, additional experiments were performed to determine the feasibility of the MDH system to produce L-ribose with MDH enzyme. Initial fermentation experiments were performed in shake-flasks using rich media and varying concentrations of ribitol. With 2% ribitol (w/v), the MDH-expressing strain converted approximately 25% of the ribitol to L-ribose with 48 hrs. The goal for this strain would be to have >90% conversion within 24-48 hrs.
# One goal for the fermentation would be the synthesis of 100-150 g·L^−1 of L-ribose in 24-48 hrs with >90% conversion efficiency from ribitol. Initial fermentation results with the wild-type MDH show a productivity of approximately 35 g·L^−1 in 48 hrs with 30% ribitol converted.
molecule,measurement,setting,value
"Nc1ccn(C2CSC(CO)O2)c(=O)n1 (racemic) [BCH-189, (±)-2,3-dideoxy-3′-thiacytidine]",anti-HIV activity,[1],anti-HIV activity
OC[C@@H](O)C(O)[C@H](O)CO [D-Arabitol],"Relative reaction rates, Recombinant MDH",[2],33%
same,conversion of D-arabitol to D-lyxose,[3],24%
same,"Relative reaction rates, Native MDH",[4],37%
OC[C@@H](O)[C@@H](O)[C@H](O)[C@H](O)CO [D-Mannitol],"Relative reaction rates, Recombinant MDH",[2],100%
same,conversion of polyol to sugar detected by HPLC,[5],none was detected
same,conversion of D-mannitol to D-mannose,"[3]; 40 g/L polyol, 25° C., after 6 days",12%
same,"Relative reaction rates, Native MDH",[4],100%
OC[C@@H](O)[C@@H](O)[C@H](O)[C@@H](O)CO [D-Sorbitol],"Relative reaction rates, Recombinant MDH",[2],5%
same,conversion of polyol to sugar detected by HPLC,[5],none was detected
same,final conversion of D-sorbitol to L-gulose,"[3]; 40 g/L polyol, 25° C., ceased after 7 days",12%
same,"Relative reaction rates, Native MDH",[4],22%
OC[C@@H](O)[C@@H](O)CO [Erythritol],"Relative reaction rates, Recombinant MDH",[2],4%
same,"Relative reaction rates, Native MDH",[4],16%
C[C@H](O)[C@@H](O)[C@@H](O)[C@H](O)CO [L-fucitol],"relative reaction rate, % the rate of D-mannitol",[6],10.5%
O=S(=O)([O-])[O-].[Ni+2] [NiSO4],inhibition of MDH activity compared to MDH without NiSO4,[7]; 0.1 mM NiSO4,approximately 50%
OC[C@@H](O)[C@@H](O)[C@@H](O)CO [Ribitol],"Relative reaction rates, Recombinant MDH",[2],50%
same,"Relative reaction rates, Native MDH",[4],36%
Nc1ccn([C@@H]2CS[C@H](CO)O2)c(=O)n1 [Strain L-3TC],potency compared with the D-form of BCH-189,[1],more potent
OC[C@@H](O)[C@H](O)[C@@H](O)CO [Xylitol],"Relative reaction rates, Recombinant MDH",[2],1%
same,"Relative reaction rates, Native MDH",[4],0%
[Cl-].[Cl-].[Zn+2] [ZnCl2],ZnCl2 concentration of best conversion,[8],0.5 mM
O=S(=O)([O-])[O-].[Zn+2] [Zn^2+],concentrations showing inhibition of MDH activity,"[7]; D-mannitol, NAD, pH 9.0",above 1 μM
same,increase of MDH activity compared to no added zinc,"[7]; addition of 1 μM Zn2+, D-mannitol, NAD, pH 9.0",50%
OC[C@@H](O)[C@H](O)[C@H](O)[C@@H](O)CO [galactitol],conversion of polyol to sugar detected by HPLC,[5],none was detected
same,conversion of galactitol to L-galactose,"[3]; 40 g/L polyol, 25° C., 14 days",40%
"MDH: NAD-dependent mannitol-1-dehydrogenase from Apium graveolens, SEQ ID NO:2, wild type, expressed in E. coli (protein) MAKSSEIEHPVKAFGWAARDTTGLLSPFKFSRRATGEKDVRLKVLFSGVCHSDHHMIHNNWGFTTYPIVPGHEIVGVVTEVGSKVEKVKVGDNVGIGCLVGSCRSCESCCDNRESHCENIIDTYGSIYFDGTMTHGGYSDTMVADEHFILRWPKNLPLDSGAPLLCAGITTYSPLKYYGLDKPGTKIGVVGLGGLGHVAVKMAKAFGAQVTVIDISESKRKEALEKLGADSFLLNSDQEQMKGARSSLDGIIDTVPVNHPLAPLFDLLKPNGKLVMVGAPEKPFELPVFSLLKGRKLLGGTINGGIKETQEMLDFAAKHNITADVEVIPMDYVNTAMERLVKSDVRYRFVIDIANTMRTEESLGA",residual activity at pH 7.0,[9],10%
same,loss of MDH activity on incubation of lysates,[10],Most MDH activity was lost
same,Ratio T1/2,[11],1.0
same,ribitol converted to L-ribose,"[12]; 2% ribitol (w/v), shake-flask, 48 hrs",approximately 25%
same,ribitol converted,[12]; 48 hrs,30%
same,productivity of L-ribose,"[12]; in 48 hrs, unoptimized E. coli strain",approximately 35 g·L^−1
